Structures can show the parent of a compound that is named as a salt.
Legend:
KMS.12.BM cells = assay: KMS.12.BM cell viability assay (Cell Titer-GLO, ATP quantitation); format: cell-based; details: Homo sapiens, 72 h, 3 days, concentration required for 50% cell death, read-out: KMS cellular IC50
Procedure: KMS.12.BM cell line (human myeloma) was purchased from JCRB (Osaka, Japan) and maintained in RPMI with 10% FBS culture medium. To measure the cytotoxic activity of the compounds through ATP quantitation, the KMS.12.BM cells are plated in the RPMI culture medium at 5000 cells/well/per 100 μL into a 96-well polystyrene clear black tissue culture plate (Greiner-bio-one through VWR, NJ), in the presence or absence of a concentration range of test compounds. After 3 days, […] Cell Titer-GLO Luminescent (Promega, Madison, Wis.) cell culture agent is added to each well for 10 minutes at room temperature to stabilize the luminescent signal. This determines the number of viable cells in culture based on quantitation of the ATP present, which signals the presence of metabolically active cells. Luminescence is measured with the Top Count 384 (Packard Bioscience through Perkin Elmer, Boston, Mass.). Compound inhibition is determined relative to cells cultured with no drug and the IC50 is reported as the compound concentration required for 50% cell death. IC50 data for the Examples is presented in Table 9 as determined by Assay B1.

BRD4-BD1 = BRD4-BD1 (Homo sapiens (Human), UniProt O60885); assay: BRD4 AlphaScreen assay, BRD4-BD1; format: binding; details: H4Ac4 peptide, 75 min, room temperature, read-out: BRD4 BD-1 enzyme IC50
Procedure: (§1) BRD4-BD1 and BRD4-BD2 assays were conducted in white 384-well polystyrene plate in a final volume of 20 μL for BD1 and 40 μL for BD2. Inhibitors were first serially diluted in DMSO and added to the plate wells before the addition of other reaction components. […] After plate sealing, the plate was incubated in the dark at room temperature for 75 min. before reading on a PHERAstar FS plate reader (BMG Labtech). IC50 determination was performed by fitting the curve of percent control activity versus the log of the inhibitor concentration using the GraphPad Prism 5.0 software.

BRD4-BD2 = BRD4-BD2 (Homo sapiens (Human), UniProt O60885); assay: BRD4 AlphaScreen assay, BRD4-BD2; format: binding; details: H4Ac4 peptide, 75 min, room temperature, read-out: BRD4 BD-2 enzyme IC50
Procedure: as §1

| IC50 (BRD4-BD1) [nM] | IC50 (BRD4-BD2) [nM] | SMILES | IC50 (KMS.12.BM cells) [nM] |
| --- | --- | --- | --- |
| < 100 | < 100 | Cn1cc(-c2ccc3[nH]c(=O)[nH]c3c2OC2CCC(F)(F)CC2)c2cc[nH]c2c1=O [Example 23, 4-[(4,4-Difluorocyclohexyl)oxy]-5-(6-methyl-7-oxo-6,7-dihydro-1H-pyrrolo[2,3-c]pyridin-4-yl)-1,3-dihydro-2H-benzimidazol-2-one] | ≤ 1000 |
| < 100 | < 100 | CN(C)C(=O)Cn1cnc2ccc(-c3cn(C)c(=O)c4[nH]ccc34)c(Oc3ccc(F)cc3F)c21 [Example 33, 2-[7-(2,4-Difluorophenoxy)-6-(6-methyl-7-oxo-6,7-dihydro-1H-pyrrolo[2,3-c]pyridin-4-yl)-1H-benzimidazol-1-yl]-N,N-dimethylacetamide] | ≤ 1000 |
| < 100 | < 100 | CNC(=O)Cn1cnc2ccc(-c3cn(C)c(=O)c4[nH]ccc34)c(Oc3ccc(F)cc3F)c21 [Example 35, 2-[7-(2,4-Difluorophenoxy)-6-(6-methyl-7-oxo-6,7-dihydro-1H-pyrrolo[2,3-c]pyridin-4-yl)-1H-benzimidazol-1-yl]-N-methylacetamide] | ≤ 1000 |
| < 100 | < 100 | COc1c(-c2cn(C)c(=O)c3[nH]ccc23)ccc2c1n(Cc1ccccc1)c(=O)n2C [Example 44, 3-Benzyl-4-methoxy-1-methyl-5-(6-methyl-7-oxo-6,7-dihydro-1H-pyrrolo[2,3-c]pyridin-4-yl)-1,3-dihydro-2H-benzimidazol-2-one] | ≤ 1000 |
| 100 to 1000 | < 100 | COc1c(-c2cn(C)c(=O)c3[nH]ccc23)ccc2c1n(CCc1ccccc1)c(=O)n2C [Example 49, 4-Methoxy-1-methyl-5-(6-methyl-7-oxo-6,7-dihydro-1H-pyrrolo[2,3-c]pyridin-4-yl)-3-(2-phenylethyl)-1,3-dihydro-2H-benzimidazol-2-one] | ≤ 1000 |
| 100 to 1000 | < 100 | COc1c(-c2cn(C)c(=O)c3[nH]ccc23)ccc2c1n(CCN1CCOCC1)c(=O)n2C [Example 50, 4-Methoxy-1-methyl-5-(6-methyl-7-oxo-6,7-dihydro-1H-pyrrolo[2,3-c]pyridin-4-yl)-3-(2-morpholin-4-ylethyl)-1,3-dihydro-2H-benzimidazol-2-one] |  |
| < 100 | < 100 | Cn1cc(-c2ccc3c(c2OCC2CCC2)n(CCc2ccccc2)c(=O)n3C)c2cc[nH]c2c1=O [Example 63, 4-(Cyclobutylmethoxy)-1-methyl-5-(6-methyl-7-oxo-6,7-dihydro-1H-pyrrolo[2,3-c]pyridin-4-yl)-3-(2-phenylethyl)-1,3-dihydro-2H-benzimidazol-2-one] | ≤ 1000 |
| < 100 | < 100 | Cn1cc(-c2ccc3c(c2OCC2CCC2)n(CCC2CCNCC2)c(=O)n3C)c2cc[nH]c2c1=O [Example 65, 4-(Cyclobutylmethoxy)-1-methyl-5-(6-methyl-7-oxo-6,7-dihydro-1H-pyrrolo[2,3-c]pyridin-4-yl)-3-(2-piperidin-4-ylethyl)-1,3-dihydro-2H-benzimidazol-2-one] | 1000 to 10000 |
| < 100 | < 100 | Cn1cc(-c2ccc3c(c2OCC2CCC2)n(CCN2CCN(S(C)(=O)=O)CC2)c(=O)n3C)c2cc[nH]c2c1=O [Example 67, 4-(Cyclobutylmethoxy)-1-methyl-5-(6-methyl-7-oxo-6,7-dihydro-1H-pyrrolo[2,3-c]pyridin-4-yl)-3-{2-[4-(methylsulfonyl)piperazin-1-yl]ethyl}-1,3-dihydro-2H-benzimidazol-2-one] | ≤ 1000 |
| 1000 to 10000 | 1000 to 10000 | C[C@@H]1CN(CCn2c(NCc3ccccc3)nc3c(Oc4ccccc4)c(-c4cn(C)c(=O)c5[nH]ccc45)ccc32)C[C@H](C)O1 [Example 71, 4-(2-(Benzylamino)-1-{2-[(2R,6S)-2,6-dimethylmorpholin-4-yl]ethyl}-4-phenoxy-1H-benzimidazol-5-yl)-6-methyl-1,6-dihydro-7H-pyrrolo[2,3-c]pyridin-7-one trifluoroacetate] |  |
| 100 to 1000 | < 100 | C[C@@H]1CN(CCn2c(NCC3CC3)nc3c(Oc4ccccc4)c(-c4cn(C)c(=O)c5[nH]ccc45)ccc32)C[C@H](C)O1 [Example 72, 4-(2-[(Cyclopropylmethyl)amino]-1-{2-[(2R,6S)-2,6-dimethylmorpholin-4-yl]ethyl}-4-phenoxy-1H-benzimidazol-5-yl)-6-methyl-1,6-dihydro-7H-pyrrolo[2,3-c]pyridin-7-one trifluoroacetate] | 1000 to 10000 |
| 1000 to 10000 | 100 to 1000 | CCOc1c(-c2cn(C)c(=O)c3[nH]ccc23)c(C)nc2cc(C)nn12 [Example 73, 4-(7-Ethoxy-2,5-dimethylpyrazolo[1,5-a]pyrimidin-6-yl)-6-methyl-1,6-dihydro-7H-pyrrolo[2,3-c]pyridin-7-one] |  |
| 100 to 1000 | < 100 | Cn1cc(-c2cc(CNCCN3CCOCC3)c3[nH]c(=O)[nH]c3c2Oc2ccc(F)cc2F)c2cc[nH]c2c1=O [Example 79, 4-(2,4-Difluorophenoxy)-5-(6-methyl-7-oxo-6,7-dihydro-1H-pyrrolo[2,3-c]pyridin-4-yl)-7-{[(2-morpholin-4-ylethyl)amino]methyl}-1,3-dihydro-2H-benzimidazol-2-one] | 1000 to 10000 |
| < 100 | < 100 | Cn1cc(-c2cc(CNCc3ccccc3)c3[nH]c(=O)[nH]c3c2Oc2ccc(F)cc2F)c2cc[nH]c2c1=O [Example 80, 7-[(Benzylamino)methyl]-4-(2,4-difluorophenoxy)-5-(6-methyl-7-oxo-6,7-dihydro-1H-pyrrolo[2,3-c]pyridin-4-yl)-1,3-dihydro-2H-benzimidazol-2-one] | ≤ 1000 |
| 100 to 1000 | < 100 | Cn1cc(-c2cc(CNCC3CC3)c3[nH]c(=O)[nH]c3c2Oc2ccc(F)cc2F)c2cc[nH]c2c1=O [Example 81, 7-{[(Cyclopropylmethyl)amino]methyl}-4-(2,4-difluorophenoxy)-5-(6-methyl-7-oxo-6,7-dihydro-1H-pyrrolo[2,3-c]pyridin-4-yl)-1,3-dihydro-2H-benzimidazol-2-one] | ≤ 1000 |
| 100 to 1000 | 100 to 1000 | Cn1cnc2c(Oc3ccc(F)cc3F)c(-c3c[nH]c(=O)c4[nH]ccc34)ccc21 [Example 82, 4-[4-(2,4-Difluorophenoxy)-1-methyl-1H-benzimidazol-5-yl]-1,6-dihydro-7H-pyrrolo[2,3-c]pyridin-7-one] |  |
| 100 to 1000 | < 100 | CCn1cc(-c2ccc3c(ncn3C)c2Oc2ccc(F)cc2F)c2cc[nH]c2c1=O [Example 83, 4-[4-(2,4-Difluorophenoxy)-1-methyl-1H-benzimidazol-5-yl]-6-ethyl-1,6-dihydro-7H-pyrrolo[2,3-c]pyridin-7-one] | ≤ 1000 |
| 1000 to 10000 | 100 to 1000 | Cn1cnc2c(Oc3ccc(F)cc3F)c(-c3cn(Cc4ccccc4)c(=O)c4[nH]ccc34)ccc21 [Example 84, 6-Benzyl-4-[4-(2,4-difluorophenoxy)-1-methyl-1H-benzimidazol-5-yl]-1,6-dihydro-7H-pyrrolo[2,3-c]pyridin-7-one trifluoroacetate] |  |
| 1000 to 10000 | 100 to 1000 | Cn1cnc2c(Oc3ccc(F)cc3F)c(-c3cn(CC#N)c(=O)c4[nH]ccc34)ccc21 [Example 85, {4-[4-(2,4-Difluorophenoxy)-1-methyl-1H-benzimidazol-5-yl]-7-oxo-1,7-dihydro-6H-pyrrolo[2,3-c]pyridin-6-yl}acetonitrile trifluoroacetate] |  |
| 1000 to 10000 | 100 to 1000 | CCS(=O)(=O)c1c(-c2cn(C)c(=O)c3[nH]ccc23)ccc2c1[nH]c(=O)n2C [Example 99, 4-(Ethylsulfonyl)-1-methyl-5-(6-methyl-7-oxo-6,7-dihydro-1H-pyrrolo[2,3-c]pyridin-4-yl)-1,3-dihydro-2H-benzimidazol-2-one] |  |
| 100 to 1000 | 100 to 1000 | Cn1cc(-c2ccc3c(c2Oc2ccccc2)N(Cc2ccccc2)C(=O)CO3)c2cc[nH]c2c1=O [Example 101, 4-Benzyl-6-(6-methyl-7-oxo-6,7-dihydro-1H-pyrrolo[2,3-c]pyridin-4-yl)-5-phenoxy-2H-1,4-benzoxazin-3(4H)-one] |  |
| 100 to 1000 | < 100 | Cn1cc(-c2ccc3c(c2Oc2ccccc2)NC(c2ccccc2)CO3)c2cc[nH]c2c1=O (centres unmarked) [Example 110, 6-Methyl-4-(5-phenoxy-3-phenyl-3,4-dihydro-2H-1,4-benzoxazin-6-yl)-1,6-dihydro-7H-pyrrolo[2,3-c]pyridin-7-one] |  |

| SMILES | IC50 (BRD4-BD1) [nM] | IC50 (BRD4-BD2) [nM] | IC50 (KMS.12.BM cells) [nM] |
| --- | --- | --- | --- |
| Cn1cc(-c2ccc3c(c2Oc2ccccc2)N(CCN2CCOCC2)C(=O)CO3)c2cc[nH]c2c1=O [Example 102, 6-(6-Methyl-7-oxo-6,7-dihydro-1H-pyrrolo[2,3-c]pyridin-4-yl)-4-(2-morpholin-4-ylethyl)-5-phenoxy-2H-1,4-benzoxazin-3(4H)-one trifluoroacetate] | 100 to 1000 | < 100 |  |

Source: patent publication US9918990B2, “Substituted pyrrolo[2,3-c]pyridines and pyrazolo[3,4-c]pyridines as BET protein inhibitors” (Incyte Corporation, priority 2013, dated 2018)
